Experiment: recombinant UMI read abundance after kanamycin selection (control-corrected) (log10(CPM+1)); higher = more efficient recombination; extreme values may be limits of the assay; sequences stand for … in AGTGCAGAGAAAATCGGCCAGTTTTCTCTGCCTGCAGTCCGCATGCCGTGGGACCCCTTGGGTTCTAACCTGTTGCCTAGATTTATGCAGCGGACTGCCTTTCTCCCAAAGTGATAAACCGG…AGGTTGGTTTCACT; site = the 11-nt donor
Outline: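 Sequenced counts of recombinant UMIs were turned into CPM, averaged across replicates and scaled with control-derived factors. The reported figure is log10(CPM+1). Those UMIs, each 12 nt long, tagged donor and donor-binding-loop pairs on a plasmid with a promoterless kanamycin gene, screened as a pool in Escherichia coli with IPTG (0.07 mM) plus kanamycin or without selection.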
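Further: IS621 bridge recombinase in Escherichia coli cells against a fixed T5 target plasmid.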

Sequence | recombinant UMI read abundance (log10)
GGCCACCCATGGACCGGTTTTCCCGGTAATCCGTATTTGTG (site GGCCACCCTCA) | 0.00742
GGCCACCCATGGACCGGTTTTCCCGGTAATCCGTATTTGTG (site GGCCACCCTGA) | 0
GGCCACCCATGGACCGGTTTTCCCGGTAATCCGTATTTGTG (site GGCCACCCTTA) | 0.0265
GGCCACGCATGGACCGGTTTTCCCGGTAATCCGTATTTGTT (site GGCCACACTAA) | 0.148
GGCCACGCATGGACCGGTTTTCCCGGTAATCCGTATTTGTT (site GGCCACCCTAA) | 0.023
GGCCACGCATGGACCGGTTTTCCCGGTAATCCGTATTTGTT (site GGCCACGCTAA) | 0.96
GGCCACGCATGGACCGGTTTTCCCGGTAATCCGTATTTGTT (site GGCCACTCTAA) | 0.0156
GGCCATCCATGGACCGGTTTTCCCGGTAATCCGTATTTGAA (site GGCAATCCTTT) | 0.00447
GGCCATCCATGGACCGGTTTTCCCGGTAATCCGTATTTGAA (site GGCCATCCTTT) | 0.00888
GGCCATCCATGGACCGGTTTTCCCGGTAATCCGTATTTGAA (site GGCGATCCTTT) | 0.00507
GGCCATCCATGGACCGGTTTTCCCGGTAATCCGTATTTGAA (site GGCTATCCTTT) | 0.0589
GGCCCCCCATGGACCGGTTTTCCCGGTAATCCGTATTTGTT (site GGCCACCCTAA) | 0.0272
GGCCCCCCATGGACCGGTTTTCCCGGTAATCCGTATTTGTT (site GGCCCCCCTAA) | 0.0352
GGCCCCCCATGGACCGGTTTTCCCGGTAATCCGTATTTGTT (site GGCCGCCCTAA) | 0.0281
GGCCCCCCATGGACCGGTTTTCCCGGTAATCCGTATTTGTT (site GGCCTCCCTAA) | 0.0156
GGCCTAGCATGGACCGGTTTTCCCGGTAATCCGTATTTGTT (site AGCCTAGCTAA) | 0
GGCCTAGCATGGACCGGTTTTCCCGGTAATCCGTATTTGTT (site CGCCTAGCTAA) | 0.0146
GGCCTAGCATGGACCGGTTTTCCCGGTAATCCGTATTTGTT (site GGCCTAGCTAA) | 0.00233
GGCCTAGCATGGACCGGTTTTCCCGGTAATCCGTATTTGTT (site TGCCTAGCTAA) | 0.0108
GGCGATACATGGACCGGTTTTCCCGGTAATCCGTATTTGCT (site GGCGATACTAG) | 1.5
GGCGCTACATGGACCGGTTTTCCCGGTAATCCGTATTTGAT (site GGCGCTACTAT) | 0.866
GGCGGCTCATGGACCGGTTTTCCCGGTAATCCGTATTTGTG (site GGCGGCTCTCA) | 1.23
GGCGTGGCATGGACCGGTTTTCCCGGTAATCCGTATTTGGT (site GGAGTGGCTAC) | 0.00572
GGCGTGGCATGGACCGGTTTTCCCGGTAATCCGTATTTGGT (site GGCGTGGCTAC) | 0.511
GGCGTGGCATGGACCGGTTTTCCCGGTAATCCGTATTTGGT (site GGGGTGGCTAC) | 0.00519

Sequence | recombinant UMI read abundance (log10)
GGCGTGGCATGGACCGGTTTTCCCGGTAATCCGTATTTGGT (site GGTGTGGCTAC) | 0.00854
GGCTAGACATGGACCGGTTTTCCCGGTAATCCGTATTTGCC (site GGATAGACTGG) | 0
GGCTAGACATGGACCGGTTTTCCCGGTAATCCGTATTTGCC (site GGCTAGACTGG) | 0.563
GGCTAGACATGGACCGGTTTTCCCGGTAATCCGTATTTGCC (site GGGTAGACTGG) | 0
GGCTAGACATGGACCGGTTTTCCCGGTAATCCGTATTTGCC (site GGTTAGACTGG) | 0
GGCTAGACATGGACCGGTTTTCCCGGTAATCCGTATTTGTG (site GGCTAGACTCA) | 0.659
GGCTATCCATGGACCGGTTTTCCCGGTAATCCGTATTTGAA (site GGCAATCCTTT) | 0.00767
GGCTATCCATGGACCGGTTTTCCCGGTAATCCGTATTTGAA (site GGCCATCCTTT) | 0.0272
GGCTATCCATGGACCGGTTTTCCCGGTAATCCGTATTTGAA (site GGCGATCCTTT) | 0.0136
GGCTATCCATGGACCGGTTTTCCCGGTAATCCGTATTTGAA (site GGCTATCCTTT) | 0.133
GGCTCCTCATGGACCGGTTTTCCCGGTAATCCGTATTTGTA (site GGCTCCTCTTA) | 1.84
GGCTGGCCATGGACCGGTTTTCCCGGTAATCCGTATTTGAT (site GGCTGGCCTAT) | 0.0261
GGGAAAACATGGACCGGTTTTCCCGGTAATCCGTATTTGCT (site GAGAAAACTAG) | 0
GGGAAAACATGGACCGGTTTTCCCGGTAATCCGTATTTGCT (site GCGAAAACTAG) | 0.0308
GGGAAAACATGGACCGGTTTTCCCGGTAATCCGTATTTGCT (site GGGAAAACTAG) | 0
GGGAAAACATGGACCGGTTTTCCCGGTAATCCGTATTTGCT (site GTGAAAACTAG) | 0
GGGAAGACATGGACCGGTTTTCCCGGTAATCCGTATTTGCA (site AGGAAGACTTG) | 0.813
GGGAAGACATGGACCGGTTTTCCCGGTAATCCGTATTTGCA (site CGGAAGACTTG) | 0
GGGAAGACATGGACCGGTTTTCCCGGTAATCCGTATTTGCA (site GGGAAGACTTG) | 1.96
GGGAAGACATGGACCGGTTTTCCCGGTAATCCGTATTTGCA (site TGGAAGACTTG) | 1.19
GGGAAGACATGGACCGGTTTTCCCGGTAATCCGTATTTGCT (site AGGAAGACTTG) | 0
GGGAAGACATGGACCGGTTTTCCCGGTAATCCGTATTTGCT (site GGGAAGACTAG) | 1.69
GGGAATACATGGACCGGTTTTCCCGGTAATCCGTATTTGAG (site GGGAATACTCT) | 1.35
GGGAATCCATGGACCGGTTTTCCCGGTAATCCGTATTTGTC (site CGGAATCCTAA) | 0.00512
GGGAATCCATGGACCGGTTTTCCCGGTAATCCGTATTTGTC (site GGGAATCCTGA) | 0

Sequence | recombinant UMI read abundance (log10)
GGGACAACATGGACCGGTTTTCCCGGTAATCCGTATTTGTG (site GGGACAACTCA) | 0.439
GGGACATCATGGACCGGTTTTCCCGGTAATCCGTATTTGGA (site GGGACATCTTC) | 1.52
GGGACGTCATGGACCGGTTTTCCCGGTAATCCGTATTTGTG (site GGGACGTCTCA) | 2.05
GGGCAATCATGGACCGGTTTTCCCGGTAATCCGTATTTGTC (site GGGCAATCTGA) | 2.8
GGGCAATCATGGACCGGTTTTCCCGGTAATCCGTATTTGTG (site GGGCAATCTCA) | 1.92
GGGCATGCATGGACCGGTTTTCCCGGTAATCCGTATTTGAG (site GGGCATGCTCT) | 1.57
GGGCATGCATGGACCGGTTTTCCCGGTAATCCGTATTTGGT (site GAGCATGCTAC) | 0.336
GGGCATGCATGGACCGGTTTTCCCGGTAATCCGTATTTGGT (site GCGCATGCTAC) | 0.0126
GGGCATGCATGGACCGGTTTTCCCGGTAATCCGTATTTGGT (site GGGCATGCTAC) | 1.33
GGGCATGCATGGACCGGTTTTCCCGGTAATCCGTATTTGGT (site GTGCATGCTAC) | 0.161
GGGCCAACATGGACCGGTTTTCCCGGTAATCCGTATTTGTG (site GGGCCAACTCA) | 0
GGGCCACCATGGACCGGTTTTCCCGGTAATCCGTATTTGCA (site GGGACACCTTG) | 0
GGGCCACCATGGACCGGTTTTCCCGGTAATCCGTATTTGCA (site GGGCCACCTTG) | 0
GGGCCACCATGGACCGGTTTTCCCGGTAATCCGTATTTGCA (site GGGGCACCTTG) | 0
GGGCCACCATGGACCGGTTTTCCCGGTAATCCGTATTTGCA (site GGGTCACCTTG) | 0.00812
GGGCCTACATGGACCGGTTTTCCCGGTAATCCGTATTTGCT (site GGGCCTACTAG) | 1.86
GGGCCTGCATGGACCGGTTTTCCCGGTAATCCGTATTTGTG (site GGGCCTGCTCA) | 0.38
GGGCGAACATGGACCGGTTTTCCCGGTAATCCGTATTTGGA (site GGGCGAACTTC) | 0.799
GGGCGTCCATGGACCGGTTTTCCCGGTAATCCGTATTTGCA (site GGGCGTCCTTG) | 2.59
GGGCGTCCATGGACCGGTTTTCCCGGTAATCCGTATTTGGT (site GGGCGTCCTAC) | 0
GGGCTTGCATGGACCGGTTTTCCCGGTAATCCGTATTTGGA (site GGGCTTGCTTC) | 0.564
GGGGAATCATGGACCGGTTTTCCCGGTAATCCGTATTTGGT (site GGGGAATCTAC) | 0.628
GGGGAGGCATGGACCGGTTTTCCCGGTAATCCGTATTTGTG (site GAGGAGGCTCA) | 0
GGGGAGGCATGGACCGGTTTTCCCGGTAATCCGTATTTGTG (site GCGGAGGCTCA) | 0.00803
GGGGAGGCATGGACCGGTTTTCCCGGTAATCCGTATTTGTG (site GGGGAGGCTCA) | 0.851

Reference: the supplement of paper PMC11208160
